The experiment concerns the target T1, Tyrosine-protein phosphatase non-receptor type 1 (Homo sapiens, UniProt P18031).
T1 sequence (P18031 whole entry): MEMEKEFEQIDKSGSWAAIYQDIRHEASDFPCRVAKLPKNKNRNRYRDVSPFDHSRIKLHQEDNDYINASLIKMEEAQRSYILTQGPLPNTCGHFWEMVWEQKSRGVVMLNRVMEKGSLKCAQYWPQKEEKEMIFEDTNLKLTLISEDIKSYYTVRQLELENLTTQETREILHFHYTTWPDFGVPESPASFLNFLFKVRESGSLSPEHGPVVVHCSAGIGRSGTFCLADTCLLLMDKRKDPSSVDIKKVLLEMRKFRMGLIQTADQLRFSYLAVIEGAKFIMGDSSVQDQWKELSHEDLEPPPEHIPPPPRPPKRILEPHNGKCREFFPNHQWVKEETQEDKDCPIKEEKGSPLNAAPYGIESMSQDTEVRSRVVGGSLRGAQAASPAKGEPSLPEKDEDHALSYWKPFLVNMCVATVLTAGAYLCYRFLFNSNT
As to the kind of experiment: Inhibition of human recombinant PTP1B.

Here are results for six molecules from ChEMBL document CHEMBL1156122, “Protein tyrosine phosphatase 1B inhibitors isolated from Morus bombycis” (Bioorg Med Chem Lett, 2009).

For the molecule `CC(C)=CCC/C(C)=C/Cc1c(O)cc(O)cc1-c1cc2ccc(O)cc2o1` [ALBAFURAN A], the IC50 – broadly, the concentration needed to halve the response being measured – came to 9.2 µM.

As for `CC(C)=CCc1c(O)cc(C(=O)[C@H]2[C@@H](c3c(O)ccc(C(=O)/C=C/c4ccc(O)cc4O)c3O)C=C(C)C[C@@H]2c2ccc(O)cc2O)cc1O` [KUWANON J], the IC50 was determined as 2.7 µM.

Consider `CC(C)=CCc1c(O)cc(C(=O)[C@H]2[C@@H](c3c(O)ccc(C(=O)/C=C/c4ccc(O)cc4)c3O)C=C(C)C[C@@H]2c2ccc(O)cc2O)cc1O` [KUWANON R], for which the IC50 was 8.2 µM.

On to `CC(C)=CCc1c(O)cc(C(=O)[C@H]2[C@@H](c3c(O)ccc(C(=O)/C=C/c4ccc(O)cc4)c3O)C=C(C)C[C@@H]2c2ccc(O)cc2)cc1O` [KUWANON V], for which the IC50 turned out to be 13.8 µM.

For the molecule `CC(C)=CCC/C(C)=C/Cc1c(O)ccc2cc(-c3cc(O)cc(O)c3CC=C(C)C)oc12` [MULBERROFURAN D], the IC50 was 4.3 µM.

Regarding `CC(C)=CCC/C(C)=C\CC/C(C)=C\Cc1c(O)cc(O)cc1-c1cc2ccc(O)cc2o1` [MULBERROFURAN W], the concentration for half-maximal inhibition (IC50) was 2.7 µM.
